Experimental data reported in PubChem BioAssay AID588764 (Broad Institute, 2011).
Results filed as inconclusive are left out. Calls of active or inactive are those of the source. No rule for the calls is given here.

Molecular target: Histone acetyltransferase RTT109 (Candida albicans (strain SC5314 / ATCC MYA-2876)) (UniProt Q5AAJ8)
Assay: Rtt109/Vps75 acetyltransferase inhibitor potency, dose response, biochemical, cherry-picked hits, plate reader (AID 588764)
Details: Rtt109/Vps75 HAT activity; for activity change, negative = inhibition: at 19.5 µM (top of the series)

Histone acetyltransferase RTT109 (Candida albicans (strain SC5314 / ATCC MYA-2876)), sequence (Q5AAJ8 whole entry, looked up): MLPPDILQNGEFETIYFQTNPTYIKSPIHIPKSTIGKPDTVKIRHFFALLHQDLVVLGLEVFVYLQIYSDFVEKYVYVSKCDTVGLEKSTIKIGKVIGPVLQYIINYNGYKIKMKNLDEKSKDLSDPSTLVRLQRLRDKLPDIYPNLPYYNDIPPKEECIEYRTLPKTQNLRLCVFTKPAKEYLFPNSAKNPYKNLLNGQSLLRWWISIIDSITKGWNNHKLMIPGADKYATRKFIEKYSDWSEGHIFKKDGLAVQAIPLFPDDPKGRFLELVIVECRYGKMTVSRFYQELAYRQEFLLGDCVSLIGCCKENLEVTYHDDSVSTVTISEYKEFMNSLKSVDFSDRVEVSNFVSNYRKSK

Compound | activity change, negative = inhibition | AC50
C#CCOCCOCCOCCNc1nc(N2CCN(C(=O)[C@H](CCCCN)n3cc([C@@H](N)CC(C)C)nn3)CC2)nc(N2CCN(C(=O)[C@H](CCCCN)n3cc([C@@H](N)CC(C)C)nn3)CC2)n1 | inactive | 
Cc1nn(C)cc1[C@@H]1C[C@H]2CN(Cc3cccc(Cl)c3)C(=O)[C@]23CCCN13 | inactive | 
C[C@H](NC(=O)c1ccco1)C(=O)Nc1ccc(S(=O)(=O)N2CCCC2)cc1 | inactive | 
O=C(C1CCCO1)N1CCN(C(=S)Nc2ccc(Cl)cc2Cl)CC1 (stereo unspecified) | inactive | 
CC(C)C(C(=O)Nc1cccnc1)N1C(=O)c2ccccc2C1=O (stereo unspecified) | inactive | 
CC1CCN(c2ccccc2NC(=O)c2cc([N+](=O)[O-])ccc2N2CCOCC2)CC1 | inactive | 
COCCN1Cc2cccc(C(=O)Nc3ccc(-c4nc5ccccc5[nH]4)cc3)c2C1=O | inactive | 
O=C(CCn1c(=O)c2ccccc2n(Cc2cccc([N+](=O)[O-])c2)c1=O)N1CCc2ccccc2C1 | inactive | 
O=C1/C(=C/c2ccc(F)cc2)SC(=S)N1CC(=O)N1CCCCC1c1cccnc1 (stereo unspecified) | inactive | 
Oc1cc(O)c(CN2CCOCC2)cc1CN1CCOCC1 |  | 19.5 µM
CCOC(=O)C1CCN(c2ccc([N+](=O)[O-])c(C(C)=O)c2)CC1 | inactive | 
COCCNC(=O)C1=C(N)C(C(=O)Nc2ccc(C)c(S(=O)(=O)N3CCCCC3)c2)SC1=Nc1ccc(C)cc1C (stereo unspecified) | inactive | 
O=C(Cc1ccc(F)cc1)Nc1cccc2cccnc12 | inactive | 
COc1cc(OC)c(NC(=O)CN(C)S(=O)(=O)c2ccc(-c3ccc(=O)[nH]n3)s2)cc1Cl | inactive | 
Cc1ccc(C#N)c(SCc2nnc(-c3ccc(Cl)cc3)o2)n1 | inactive | 
CCOc1ccc(N2C(=O)CC(Sc3ccccc3C(=O)O)C2=O)c([N+](=O)[O-])c1 (stereo unspecified) | inactive | 
Cc1cccc(-n2c(O)c(/C=N/NC(=O)c3ccccc3Cl)c3ccccc3c2=O)n1 | inactive | 
CCOC(=O)c1c(C)oc2c(CC(=O)c3ccccc3)c(Cl)c(O)c(O)c12 | inactive | 
Cc1cccc(-n2c(SCC(N)=O)nc3c(c2=O)C2(CCCCC2)Cc2ccccc2-3)c1 | inactive | 
O=C(NCCCN1CCCC1=O)c1ccc(OC(F)(F)F)cc1 | inactive | 
CCC(=O)Nc1cc(C)c(OC)c(C)c1 | inactive | 
CCN(CC)S(=O)(=O)c1ccc(C(=O)Nc2cc(S(=O)(=O)N3CCOCC3)ccc2N2CCN(C)CC2)cc1 | inactive | 
CC#CCN(CC#CC)S(=O)(=O)c1ccc(-n2cnnn2)c(OC)c1 | inactive | 

Compound | activity change, negative = inhibition | AC50
COc1ccccc1-n1cnnc1SCC(=O)NC1CCCC1 | inactive | 
COc1ccc(-[n+]2c(C)cc(/C=C3\Sc4ccccc4N3C)cc2C)cc1 | inactive | 
O=C(CCc1nnc(C2(c3ccc(Cl)cc3)CCC2)o1)NCCCn1cccn1 | inactive | 
O=C(CSc1n[nH]c(-c2ccccc2Cl)n1)NC1CCCCC1 | inactive | 
C#CCOCCOCCOCCNc1nc(N2CCN(C(=O)C([C@@H](C)O)n3cc([C@@H](N)CCCCN)nn3)CC2)nc(N2CCN(C(=O)[C@H](CCCCN)n3cc(CN)nn3)CC2)n1 (stereo partly specified) | inactive | 
Cc1cccc(N2C(S)=C(C#N)C(=O)NC2c2cccs2)c1 (stereo unspecified) |  | 11.7 µM
O=[N+]([O-])c1ccc(Sc2cccc[n+]2[O-])c2nonc12 |  | 11.6 µM
CC(=O)NC(CC(=O)NC1CCCc2ccccc21)c1ccccc1 (stereo unspecified) | inactive | 
CC(C)c1ccc(NC(=O)NC(C)c2ccc3c(c2)OCO3)cc1 (stereo unspecified) | inactive | 
CC1(C)OC(=O)N(c2ccccc2)C12C=Cc1cc(Br)ccc1O2 (stereo unspecified) | inactive | 
COc1ccccc1C(=O)NCC(=O)N=Nc1c(O)n(C(C)C)c2ccccc12 | inactive | 
O=C(O)c1ccc(-c2ccc(/C=N/Nc3ccc([N+](=O)[O-])cc3)o2)cc1 | inactive | 
COc1ccc(CCNC(=O)CN2C(=O)NC3(CCCCC3C)C2=O)cc1 (stereo unspecified) | inactive | 
CC(=O)c1cccc(S(=O)(=O)N2CCC(C(=O)O)CC2)c1 | inactive | 
O=C(O)c1cccc(-n2sc3ccccc3c2=O)c1 |  | 10.5 µM
Cc1ccc(NC(=O)c2cc(N3C(=O)C=CC3=O)ccc2N2CCOCC2)cc1 |  | 7.03 µM
CCOC(=O)C1=C(C)NC(=S)N(C(C)=O)C1c1ccc(Cl)cc1 (stereo unspecified) | inactive | 
CCc1nnc(NC(=O)CSc2nnc(C3CCCCC3)n2-c2cccc(Cl)c2)s1 | inactive | 
CCCCCCCCCCn1c2c(c(=N)c3c1CCC3)CCC2 | inactive | 
O=C(NCc1ccc(Cl)cc1)c1ccccc1CCc1ccccc1 | inactive | 
COc1ccc(C(=O)NNC(=O)c2ccncc2)cc1 | inactive | 
CN1CCc2cccc3c2[C@H]1Cc1ccc(O)c(O)c1-3 |  | 18.4 µM
CCN1/C(=C/c2ccc3cc(C)ccc3[n+]2CC)Sc2cc(C)ccc21 | inactive | 

Compound | activity change, negative = inhibition | AC50
CCN(CC)CCCNc1nc2cc(OC)c(OC)cc2c2nc(-c3cccnc3)nn12 | inactive | 
COCCNC(=O)C(c1ccc(O)cc1)N(Cc1ccccc1)C(=O)CCC(=O)Nc1ccccn1 (stereo unspecified) | inactive | 
COc1cccc(/C=C2/Sc3ccc(C(=O)NCCCN4CCCC4)cc3NC2=O)c1 | inactive | 
CCCCc1ccc(-n2c(Cc3cccs3)n[nH]c2=S)cc1 | inactive | 
COC(=O)c1cccc(N2C(=O)C(Cl)=C(N3CCOCC3)C2=O)c1 |  | 15.8 µM
COc1cc(C2NC(=O)C(C#N)=C(S)N2c2ccccc2)ccc1OC(C)C (stereo unspecified) | inactive | 
CCOC(=O)C1=C(C)N=c2s/c(=C/c3ccc(OCC(=O)O)cc3)c(=O)n2C1c1cc(OC)c(OC)c(OC)c1 (stereo unspecified) | inactive | 
COC(=O)c1cccc(Oc2cccc(Cl)n2)c1 | inactive | 
COC(=O)/C=C\C(=O)Nc1cccc([N+](=O)[O-])c1 |  | 5.62 µM
Cc1cc(C)nc(N2CCC(C(=O)Nc3ccc4c(c3)OCCO4)CC2)n1 | inactive | 
COc1ccc(-n2cnc3scc(-c4ccc(OC)c(OC)c4)c3c2=O)cc1 | inactive | 
COc1ccc(-c2nc(-c3cccs3)no2)cc1 | inactive | 
COc1cccc2c1Oc1ncccc1N(C(=O)CCC(=O)NCc1ccc(F)cc1)C2 | inactive | 
COc1ccc(/C=C/C(=O)O)cc1S(=O)(=O)NCc1ccco1 | inactive | 
C[C@]12CC[C@@H]3c4cc(O)c(O)cc4CC[C@H]3[C@@H]1CC[C@@H]2O |  | 9.63 µM
COc1ccccc1C(=O)Nc1ccc(OCC(=O)N2CC(C)CC(C)C2)cc1 (stereo unspecified) | inactive | 
O=C(CNC(=O)c1ccc(Br)o1)NC12CC3CC(CC(C3)C1)C2 | inactive | 
COc1ccc(N2CCN(C(=O)CSc3nnc(-c4cccnc4)n3-c3ccccc3)CC2)cc1 | inactive | 
CCn1c(SCC(=O)Nc2cc(OC)c(OC)c(OC)c2)nnc1-c1cccs1 | inactive | 
COc1cccc(/C=C2\SC(=S)N(C(C)C(=O)NC3C=CS(=O)(=O)C3)C2=O)c1 (stereo unspecified) | inactive | 
CC1Cc2ccccc2N1C(=O)c1ccc(N2CCCC2)c([N+](=O)[O-])c1 (stereo unspecified) | inactive | 
Cc1ccc(C(=O)NCC(=O)NCC(c2ccco2)N2CCCCC2)cc1C (stereo unspecified) | inactive | 
Cc1cc(OCc2ccc(C(=O)NN=C3CCCC3)cc2)ccc1Cl | inactive | 

Compound | activity change, negative = inhibition | AC50
COc1ccccc1C(=O)CSc1nccn1C | inactive | 
N#CC1=C(S)N(c2ccccc2)C(c2cccs2)NC1=O (stereo unspecified) |  | 11.3 µM
COCCNS(=O)(=O)c1ccc2c(c1)C(=NO)c1cc(S(=O)(=O)NCCOC)ccc1-2 | inactive | 
O=C1OC(NC(=O)c2ccccc2)C(n2cc(CO)nn2)=C1Cl (stereo unspecified) |  | 5.2 µM
Cc1cc(C)c2c(=O)n(CC(=O)Nc3cccc(Cl)c3C)sc2n1 |  | 1.98 µM
O=C(COC(=O)c1cnccn1)c1ccc([N+](=O)[O-])cc1 |  | 11.4 µM
Cc1cccc2sc(N(CCCN(C)C)C(=O)CCc3ccccc3)nc12 | inactive | 
O=C(NCc1ccncc1)C(=O)NCC(c1ccco1)N1CCN(c2ccc(F)cc2)CC1 (stereo unspecified) | inactive | 
O=C(O)C(Cc1ccccc1)N1C(=O)/C(=C/c2ccccc2)SC1=S (stereo unspecified) | inactive | 
CCOc1ccc(N2C(=O)C(Cl)=C(N3CCOCC3)C2=O)cc1 |  | 20.3 µM
CC1Cc2ccccc2N1C(=O)COC(=O)c1ccc(O)cc1 (stereo unspecified) | inactive | 
CCOC(=O)N1CCN(Cc2c(O)ccc3ccccc23)CC1 |  | 18.8 µM
N#Cc1c(Nc2ccccc2)s[nH]c1=O |  | 5.84 µM
CS(=O)(=O)C1=NN2C(=N)/C(=C\c3ccc(OC(=O)c4ccco4)cc3)C(=O)N=C2S1 | inactive | 
O=C(Nc1ccccc1Cl)/C(Cl)=C(\Cl)S(=O)c1ccccc1 (stereo unspecified) |  | 8.62 µM
O=C1CCC(=O)N1c1ccc(-c2nc3ccccc3s2)cc1 | inactive | 
CC1(C)C2CCC1(C)C(OCC[N+](C)(C)CC(=O)OC1CCCCC1)C2 (stereo unspecified) | inactive | 
CCN1C=CC(=C2C(=O)c3ccccc3C2=O)C=C1 | inactive | 
CN(C)S(=O)(=O)n1cc(/C=C(\NC(=O)c2ccccc2)C(=O)N2CCCC2)c2ccccc21 | inactive | 
Cc1ccc(/C=C/C(=O)NCc2ccc(S(N)(=O)=O)cc2)o1 |  | 10.7 µM
CN(C)C(CNC(=O)c1ccc(C(=O)c2ccccc2)cc1)c1ccccc1 (stereo unspecified) | inactive | 
CCCCS(=O)(=O)c1sc2nc(C)cc(C)c2c1N | inactive | 
